Assay results reported in PMC10175918 (Communications Biology, 2023).
Like-named read-outs stand apart in the source and are kept apart here.

Assays:
Assay in all cases: TGFα-shedding assay-based GPCR screening with chimeric Gα subunit proteins
Assay type in all cases: cell-based
348 GPCRs [1] = molecular target: T1, 348 GPCRs (Homo sapiens, UniProt Q8NFJ6); conditions: 10µM, Favipiravir 100μM
T1 construct: expressed in transfected cells; host or cells: HEK293A

348 GPCRs [2] = molecular target: T2, 348 GPCRs (Homo sapiens, UniProt Q8TCW9)
T2 construct: expressed in transfected cells; host or cells: HEK293A

348 GPCRs [3] = molecular target: T3, 348 GPCRs (Homo sapiens, UniProt Q7Z602); conditions: 10µM, Favipiravir 100μM
T3 construct: expressed in transfected cells; host or cells: HEK293A

348 GPCRs [4] = molecular target: T4, 348 GPCRs (Homo sapiens, UniProt Q96RI0); conditions: 10µM, Favipiravir 100μM
T4 construct: expressed in transfected cells; host or cells: HEK293A
T4 sequence (Q96RI0 18-385): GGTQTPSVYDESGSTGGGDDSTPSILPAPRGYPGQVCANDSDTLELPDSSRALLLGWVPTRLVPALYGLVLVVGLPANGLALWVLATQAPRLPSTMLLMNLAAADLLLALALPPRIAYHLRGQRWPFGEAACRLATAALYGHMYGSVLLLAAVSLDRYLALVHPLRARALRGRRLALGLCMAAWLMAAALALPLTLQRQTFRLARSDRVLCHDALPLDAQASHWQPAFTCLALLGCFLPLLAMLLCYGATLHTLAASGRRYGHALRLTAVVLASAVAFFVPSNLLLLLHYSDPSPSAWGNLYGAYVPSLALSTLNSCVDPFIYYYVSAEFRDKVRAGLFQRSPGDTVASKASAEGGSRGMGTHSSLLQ

348 GPCRs [5] = molecular target: T5, 348 GPCRs (Homo sapiens, UniProt O00155); conditions: 10µM, Favipiravir 100μM
T5 construct: expressed in transfected cells; host or cells: HEK293A

348 GPCRs [6] = molecular target: T6, 348 GPCRs (Homo sapiens, UniProt P25105)
T6 construct: expressed in transfected cells; host or cells: HEK293A

348 GPCRs [7] = molecular target: 348 GPCRs (Homo sapiens, UniProt P25103); conditions: 10µM, Favipiravir 100μM
348 GPCRs [8] = molecular target: T7, 348 GPCRs (Homo sapiens, UniProt Q5UAW9); conditions: 10µM, Favipiravir 100μM
T7 construct: expressed in transfected cells; host or cells: HEK293A

348 GPCRs [9] = molecular target: T8, 348 GPCRs (Homo sapiens, UniProt O00574)
T8 construct: expressed in transfected cells; host or cells: HEK293A

348 GPCRs [10] = molecular target: T9, 348 GPCRs (Homo sapiens, UniProt Q15761); conditions: 10µM, Favipiravir 100μM
T9 construct: expressed in transfected cells; host or cells: HEK293A
T9 sequence (Q15761 1-445): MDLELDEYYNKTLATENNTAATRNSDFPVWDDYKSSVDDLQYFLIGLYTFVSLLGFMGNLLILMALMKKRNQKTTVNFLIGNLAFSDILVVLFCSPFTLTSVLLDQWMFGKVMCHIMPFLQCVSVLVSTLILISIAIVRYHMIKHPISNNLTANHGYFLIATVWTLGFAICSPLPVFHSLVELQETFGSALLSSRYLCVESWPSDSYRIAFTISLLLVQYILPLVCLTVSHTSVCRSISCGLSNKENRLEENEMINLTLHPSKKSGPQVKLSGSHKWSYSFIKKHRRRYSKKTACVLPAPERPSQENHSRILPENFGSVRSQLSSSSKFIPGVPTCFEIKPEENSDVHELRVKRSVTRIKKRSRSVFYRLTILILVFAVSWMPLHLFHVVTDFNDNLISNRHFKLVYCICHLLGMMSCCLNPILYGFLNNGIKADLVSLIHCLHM

348 GPCRs [11] = molecular target: T10, 348 GPCRs (Homo sapiens, UniProt P0DMS8); conditions: 10µM, Favipiravir 100μM
T10 construct: expressed in transfected cells; host or cells: HEK293A
T10 sequence (P0DMS8 1-318): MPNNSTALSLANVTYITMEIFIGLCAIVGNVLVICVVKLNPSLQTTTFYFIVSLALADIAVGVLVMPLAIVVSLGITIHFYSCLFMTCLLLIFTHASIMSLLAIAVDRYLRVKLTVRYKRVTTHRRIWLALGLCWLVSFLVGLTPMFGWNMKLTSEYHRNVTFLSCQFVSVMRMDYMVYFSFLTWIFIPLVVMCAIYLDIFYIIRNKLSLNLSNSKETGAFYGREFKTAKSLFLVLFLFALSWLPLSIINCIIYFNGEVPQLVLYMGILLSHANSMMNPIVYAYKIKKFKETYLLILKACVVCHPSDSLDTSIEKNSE

348 GPCRs [12] = molecular target: 348 GPCRs (Homo sapiens, UniProt P46093)
348 GPCRs [13] = molecular target: T11, 348 GPCRs (Homo sapiens, UniProt Q14833); conditions: 10µM, Favipiravir 100μM
T11 construct: expressed in transfected cells; host or cells: HEK293A

[14] = PK2 (prokineticin receptor 2), read-out: % GPCR activation compared to TPA
[15] = PROKR2 (prokineticin receptor 2), read-out: % GPCR activation compared to TPA
[16] = GPCR PK1 (prokineticin receptor 1), read-out: % GPCR activation compared to TPA
[17] = GPR141 (G Protein-Coupled Receptor 141), read-out: % GPCR activation compared to TPA
[18] = F2RL3 (coagulation factor II (thrombin) receptor-like 3), read-out: % GPCR activation compared to TPA
[19] = GPR25 (G Protein-Coupled Receptor 25), read-out: % GPCR activation compared to TPA
[20] = GPCR PAFR (platelet activating factor receptor), read-out: % GPCR activation compared to TPA
[21] = NK1 (tachykinin receptor 1), read-out: % GPCR activation compared to TPA
[22] = GPR157 (G Protein-Coupled Receptor 157), read-out: % GPCR activation compared to TPA
[23] = GPCR CXCR6 (C-X-C motif chemokine receptor 6), read-out: % GPCR activation compared to TPA
[24] = NPY5R (neuropeptide Y Receptor Y5), read-out: % GPCR activation compared to TPA
[25] = ADORA3 (adenosine A3 receptor), read-out: % GPCR activation compared to TPA
[26] = GPCR GPR4 (G Protein-Coupled Receptor 4), read-out: % GPCR activation compared to TPA
[27] = GRM4 (glutamate receptor, metabotropic 4), read-out: % GPCR activation compared to TPA
[28] = read-out: % GPCR activation compared to TPA, PK2 (prokineticin receptor 2)
[29] = read-out: % GPCR activation compared to TPA, PROKR2 (prokineticin receptor 2)
[30] = read-out: % GPCR activation compared to TPA, GPCR PK1 (prokineticin receptor 1)
[31] = read-out: % GPCR activation compared to TPA, GPR141 (G Protein-Coupled Receptor 141)
[32] = read-out: % GPCR activation compared to TPA, F2RL3 (coagulation factor II (thrombin) receptor-like 3)
[33] = read-out: % GPCR activation compared to TPA, GPR25 (G Protein-Coupled Receptor 25)
[34] = read-out: % GPCR activation compared to TPA, GPCR PAFR (platelet activating factor receptor)
[35] = read-out: % GPCR activation compared to TPA, NK1 (tachykinin receptor 1)
[36] = read-out: % GPCR activation compared to TPA, GPR157 (G Protein-Coupled Receptor 157)
[37] = read-out: % GPCR activation compared to TPA, GPCR CXCR6 (C-X-C motif chemokine receptor 6)
[38] = read-out: % GPCR activation compared to TPA, NPY5R (neuropeptide Y Receptor Y5)
[39] = read-out: % GPCR activation compared to TPA, ADORA3 (adenosine A3 receptor)
[40] = read-out: % GPCR activation compared to TPA, GPCR GPR4 (G Protein-Coupled Receptor 4)
[41] = read-out: % GPCR activation compared to TPA, GRM4 (glutamate receptor, metabotropic 4)

T5 sequence (O00155 whole entry): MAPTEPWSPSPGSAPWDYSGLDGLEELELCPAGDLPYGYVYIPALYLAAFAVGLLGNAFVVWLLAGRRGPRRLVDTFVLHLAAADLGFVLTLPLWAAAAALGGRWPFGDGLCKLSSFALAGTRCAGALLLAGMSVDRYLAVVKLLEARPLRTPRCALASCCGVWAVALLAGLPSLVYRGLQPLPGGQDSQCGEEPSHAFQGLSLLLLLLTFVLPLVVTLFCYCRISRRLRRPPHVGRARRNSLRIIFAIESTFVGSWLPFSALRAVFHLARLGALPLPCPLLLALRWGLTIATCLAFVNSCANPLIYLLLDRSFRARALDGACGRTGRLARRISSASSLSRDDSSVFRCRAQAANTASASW
T8 sequence (O00574 whole entry): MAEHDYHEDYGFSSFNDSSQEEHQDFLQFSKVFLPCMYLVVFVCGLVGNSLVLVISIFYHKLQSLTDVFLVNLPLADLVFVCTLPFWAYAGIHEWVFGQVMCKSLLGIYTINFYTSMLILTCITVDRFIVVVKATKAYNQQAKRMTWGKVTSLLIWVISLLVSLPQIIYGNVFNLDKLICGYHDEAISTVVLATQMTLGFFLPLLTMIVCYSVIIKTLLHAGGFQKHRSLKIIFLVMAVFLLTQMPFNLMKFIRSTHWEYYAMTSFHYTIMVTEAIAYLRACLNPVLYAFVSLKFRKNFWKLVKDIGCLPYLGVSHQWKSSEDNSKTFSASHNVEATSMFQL
T11 sequence (Q14833 33-912): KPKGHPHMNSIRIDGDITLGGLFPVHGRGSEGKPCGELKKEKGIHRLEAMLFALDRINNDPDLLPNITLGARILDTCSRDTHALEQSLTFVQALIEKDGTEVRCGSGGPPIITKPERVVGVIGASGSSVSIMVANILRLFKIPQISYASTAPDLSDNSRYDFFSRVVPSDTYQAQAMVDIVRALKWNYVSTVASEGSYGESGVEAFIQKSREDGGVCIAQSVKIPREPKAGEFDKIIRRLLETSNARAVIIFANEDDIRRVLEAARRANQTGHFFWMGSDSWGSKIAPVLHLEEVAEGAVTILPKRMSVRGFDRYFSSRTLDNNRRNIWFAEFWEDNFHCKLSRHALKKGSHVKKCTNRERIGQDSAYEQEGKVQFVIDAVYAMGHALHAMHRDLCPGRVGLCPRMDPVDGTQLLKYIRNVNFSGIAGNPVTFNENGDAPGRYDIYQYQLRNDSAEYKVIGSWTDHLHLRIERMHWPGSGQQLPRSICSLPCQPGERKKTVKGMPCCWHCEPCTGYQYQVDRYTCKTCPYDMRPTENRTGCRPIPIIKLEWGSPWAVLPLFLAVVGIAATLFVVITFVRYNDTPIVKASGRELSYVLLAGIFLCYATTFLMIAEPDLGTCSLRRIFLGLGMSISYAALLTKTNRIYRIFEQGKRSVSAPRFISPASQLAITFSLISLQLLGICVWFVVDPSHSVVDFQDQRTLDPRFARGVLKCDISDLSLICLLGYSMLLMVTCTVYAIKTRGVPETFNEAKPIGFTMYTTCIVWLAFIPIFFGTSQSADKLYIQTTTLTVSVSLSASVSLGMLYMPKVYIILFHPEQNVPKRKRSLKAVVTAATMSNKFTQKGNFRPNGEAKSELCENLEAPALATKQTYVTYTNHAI
T7 sequence (Q5UAW9 whole entry): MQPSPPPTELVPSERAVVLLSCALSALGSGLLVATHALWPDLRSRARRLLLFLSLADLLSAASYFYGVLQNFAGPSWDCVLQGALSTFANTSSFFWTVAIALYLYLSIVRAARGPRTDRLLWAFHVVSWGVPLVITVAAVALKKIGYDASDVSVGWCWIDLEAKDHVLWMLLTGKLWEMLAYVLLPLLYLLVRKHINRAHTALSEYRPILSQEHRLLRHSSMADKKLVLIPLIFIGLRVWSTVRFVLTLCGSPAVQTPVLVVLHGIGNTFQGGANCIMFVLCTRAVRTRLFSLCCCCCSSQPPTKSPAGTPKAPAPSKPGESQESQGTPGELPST
Chain of 348 GPCRs (Homo sapiens, UniProt P46093) (P46093 whole entry): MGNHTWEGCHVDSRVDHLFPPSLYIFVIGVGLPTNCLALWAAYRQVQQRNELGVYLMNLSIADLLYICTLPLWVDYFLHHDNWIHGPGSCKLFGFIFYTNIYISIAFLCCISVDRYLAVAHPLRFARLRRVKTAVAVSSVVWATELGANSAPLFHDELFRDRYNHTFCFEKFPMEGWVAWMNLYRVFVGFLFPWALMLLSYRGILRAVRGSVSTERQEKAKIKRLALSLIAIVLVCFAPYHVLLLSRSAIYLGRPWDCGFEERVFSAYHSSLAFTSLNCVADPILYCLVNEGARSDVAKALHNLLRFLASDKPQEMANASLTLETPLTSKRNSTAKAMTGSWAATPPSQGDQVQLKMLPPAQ
T1 sequence (Q8NFJ6 whole entry): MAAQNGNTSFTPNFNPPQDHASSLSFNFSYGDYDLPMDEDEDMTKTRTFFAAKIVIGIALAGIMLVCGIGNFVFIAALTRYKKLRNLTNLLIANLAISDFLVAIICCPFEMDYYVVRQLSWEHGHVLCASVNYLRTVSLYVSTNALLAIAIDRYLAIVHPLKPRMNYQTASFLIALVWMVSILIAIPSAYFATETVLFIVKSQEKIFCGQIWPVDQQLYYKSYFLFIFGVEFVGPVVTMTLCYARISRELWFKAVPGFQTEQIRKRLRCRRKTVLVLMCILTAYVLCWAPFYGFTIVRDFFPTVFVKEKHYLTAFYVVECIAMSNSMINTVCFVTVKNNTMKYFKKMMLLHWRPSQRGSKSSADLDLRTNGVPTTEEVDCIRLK
T2 sequence (Q8TCW9 whole entry): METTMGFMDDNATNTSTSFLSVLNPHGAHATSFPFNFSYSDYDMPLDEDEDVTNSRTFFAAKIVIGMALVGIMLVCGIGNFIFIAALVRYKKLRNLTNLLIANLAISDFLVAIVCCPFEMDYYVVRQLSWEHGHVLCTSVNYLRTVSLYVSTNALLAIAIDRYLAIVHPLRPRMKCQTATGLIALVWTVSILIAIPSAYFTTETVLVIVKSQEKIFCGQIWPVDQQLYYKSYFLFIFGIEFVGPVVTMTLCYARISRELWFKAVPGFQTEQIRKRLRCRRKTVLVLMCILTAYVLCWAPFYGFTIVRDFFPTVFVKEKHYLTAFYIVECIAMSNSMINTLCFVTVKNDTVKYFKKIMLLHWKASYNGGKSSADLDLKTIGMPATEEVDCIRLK
T6 sequence (P25105 whole entry): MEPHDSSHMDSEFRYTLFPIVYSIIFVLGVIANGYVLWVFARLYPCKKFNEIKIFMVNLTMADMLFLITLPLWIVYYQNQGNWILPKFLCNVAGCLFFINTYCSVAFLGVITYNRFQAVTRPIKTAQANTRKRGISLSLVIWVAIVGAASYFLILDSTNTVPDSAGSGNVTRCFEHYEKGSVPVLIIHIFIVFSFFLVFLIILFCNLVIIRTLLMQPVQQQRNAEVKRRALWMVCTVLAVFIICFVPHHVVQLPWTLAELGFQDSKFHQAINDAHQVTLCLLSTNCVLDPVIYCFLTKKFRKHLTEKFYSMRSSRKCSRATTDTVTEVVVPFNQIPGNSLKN
Chain of 348 GPCRs (Homo sapiens, UniProt P25103) (P25103 whole entry): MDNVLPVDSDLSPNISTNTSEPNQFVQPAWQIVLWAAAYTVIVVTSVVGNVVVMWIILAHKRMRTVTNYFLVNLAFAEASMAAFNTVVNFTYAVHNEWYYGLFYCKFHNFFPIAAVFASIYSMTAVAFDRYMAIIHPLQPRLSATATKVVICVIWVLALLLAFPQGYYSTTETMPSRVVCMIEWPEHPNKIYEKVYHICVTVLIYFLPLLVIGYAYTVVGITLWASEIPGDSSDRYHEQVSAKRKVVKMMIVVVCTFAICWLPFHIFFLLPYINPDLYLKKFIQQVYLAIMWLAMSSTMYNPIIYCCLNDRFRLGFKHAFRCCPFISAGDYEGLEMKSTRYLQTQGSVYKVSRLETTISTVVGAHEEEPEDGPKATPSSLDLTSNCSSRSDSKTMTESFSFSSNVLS
T3 sequence (Q7Z602 whole entry): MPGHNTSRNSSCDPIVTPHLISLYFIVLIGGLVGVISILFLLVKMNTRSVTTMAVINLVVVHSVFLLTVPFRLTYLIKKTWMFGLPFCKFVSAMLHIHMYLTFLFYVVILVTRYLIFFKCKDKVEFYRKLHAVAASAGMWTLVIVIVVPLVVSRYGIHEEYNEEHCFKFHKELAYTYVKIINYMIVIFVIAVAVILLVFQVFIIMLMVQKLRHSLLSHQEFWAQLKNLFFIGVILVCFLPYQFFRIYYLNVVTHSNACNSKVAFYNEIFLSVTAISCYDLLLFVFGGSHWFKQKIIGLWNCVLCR

Row | activation at 10 µM (348 GPCRs [1]; [14]) [%] | activation at 100 µM (348 GPCRs [1]; [15]) [%] | activation at 10 µM (348 GPCRs [2]; [16]) [%] | activation at 100 µM (348 GPCRs [3]; [17]) [%] | activation at 10 µM (348 GPCRs [4]; [18]) [%] | activation at 100 µM (348 GPCRs [5]; [19]) [%] | activation at 10 µM (348 GPCRs [6]; [20]) [%] | activation at 10 µM (348 GPCRs [7]; [21]) [%] | activation at 10 µM (348 GPCRs [8]; [22]) [%] | activation at 10 µM (348 GPCRs [9]; [23]) [%] | activation at 100 µM (348 GPCRs [10]; [24]) [%] | activation at 10 µM (348 GPCRs [11]; [25]) [%] | activation at 10 µM (348 GPCRs [12]; [26]) [%] | activation at 10 µM (348 GPCRs [13]; [27]) [%] | Structure (SMILES) | activation at 10 µM (348 GPCRs [1]; [28]) [%] | activation at 100 µM (348 GPCRs [1]; [29]) [%] | activation at 10 µM (348 GPCRs [2]; [30]) [%] | activation at 100 µM (348 GPCRs [3]; [31]) [%] | activation at 10 µM (348 GPCRs [4]; [32]) [%] | activation at 100 µM (348 GPCRs [5]; [33]) [%] | also measured
1 | -2.39 | -1.59 | -2.68 | -0.309 | 0.403 | -1.73 | -1.62 | -0.668 | -1.23 | -0.956 | 0.212 | 2.73 | -0.661 | 1.52 | N#C[C@@]1(c2ccc3c(N)ncnn23)O[C@H](CO)[C@@H](O)[C@H]1O [GS441524] |  |  |  |  |  |  | 
2 | -4.29 | 0.524 |  | -0.646 | -2.75 | -2.15 |  | -3.44 | -0.889 |  | -1.82 | 2.09 |  | 1.65 | NC(=O)c1nc(F)cnc1O [favipiravir, 6-fluoro-3-hydroxy-2-pyrazinecarboxamide] |  |  |  |  |  |  | activation at 100 µM (348 GPCRs [2]; GPCR PK1 (prokineticin receptor 1), 100μM, read-out: % GPCR activation compared to TPA): -2.82%; activation at 100 µM (348 GPCRs [6]; GPCR PAFR (platelet activating factor receptor), 100μM, read-out: % GPCR activation compared to TPA): -0.53%; activation at 100 µM (348 GPCRs [9]; GPCR CXCR6 (C-X-C motif chemokine receptor 6), 100μM, read-out: % GPCR activation compared to TPA): -1.02%; activation at 100 µM (348 GPCRs [12]; GPCR GPR4 (G Protein-Coupled Receptor 4), 100μM, read-out: % GPCR activation compared to TPA): -3.16%
3 | -5.79 | -1.79 | -3.53 | -1.57 | 2.35 | -2.16 | -6.72 | 1.66 | -0.773 | 0.979 | -5.02 | -0.751 | -3.97 | -0.478 | CC(C)C(=O)OC[C@H]1O[C@@H](n2ccc(NO)nc2=O)[C@H](O)[C@@H]1O [molnupiravir] |  |  |  |  |  |  | 
4 |  |  |  |  |  |  |  |  |  |  |  |  |  |  | CCC(CC)COC(=O)[C@H](C)N[P@](=O)(OC[C@H]1O[C@@](C#N)(c2ccc3c(N)ncnn23)[C@H](O)[C@@H]1O)Oc1ccccc1 [remdesivir] | -3.23 | 0.417 | -3.33 | -1.45 | -0.777 | -2.29 | activation at 10 µM (348 GPCRs [6]; [34]): 6.57%; activation at 10 µM (348 GPCRs [7]; [35]): -0.867%; activation at 10 µM (348 GPCRs [8]; [36]): 1.04%; activation at 10 µM (348 GPCRs [9]; [37]): 0.837%; activation at 100 µM (348 GPCRs [10]; [38]): 0.934%; activation at 10 µM (348 GPCRs [11]; [39]): 5.91%; activation at 10 µM (348 GPCRs [12]; [40]): -1.37%; activation at 10 µM (348 GPCRs [13]; [41]): -0.0103%
5 |  |  |  |  |  |  |  |  |  |  |  |  |  |  | CC(C)OC(=O)[C@H](C)N[P@](=O)(OC[C@H]1O[C@@H](n2ccc(=O)[nH]c2=O)[C@](C)(F)[C@@H]1O)Oc1ccccc1 [sofosbuvir] | -0.621 | -2.61 | -1.13 | -0.925 | 1.49 | -0.661 | activation at 10 µM (348 GPCRs [6]; [34]): -7.19%; activation at 10 µM (348 GPCRs [7]; [35]): -1.29%; activation at 10 µM (348 GPCRs [8]; [36]): 3.51%; activation at 10 µM (348 GPCRs [9]; [37]): -0.824%; activation at 100 µM (348 GPCRs [10]; [38]): -4.22%; activation at 10 µM (348 GPCRs [11]; [39]): -1.59%; activation at 10 µM (348 GPCRs [12]; [40]): 1.94%; activation at 10 µM (348 GPCRs [13]; [41]): 2.56%
